Test results published in US5756423A, “Method of controlling plants by inhibition of farnesyl pyrophosphate synthase” (Zeneca Limited, priority 1997, dated 1998).
Like-named read-outs stand apart in the source and are kept apart here.

Tests used:
[1] = system: wild oat (Avena fatua) (AVEFA); assay: post-emergent herbicidal test, wild oat; type: in vivo; details: Avena fatua, post-emergence, read-out: AVEFA percent control; for pest or weed control at 1000 g/ha: post-emergent, 1.0 kg/ha (*), 17-21 days after application
Outline: (§1)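 Percent injury (0 = no effect, 100 = complete kill) scored 17–21 days post-treatment against untreated flats. Foliar spray at 1 or 4 kg/ha in deionized water plus 0.5% v/v Tween 20, onto greenhouse plants (29/21 °C, 14 h light) at 3–4 leaf (grasses) or 1–2 leaf (broadleaves) stage.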

[2] = system: velvetleaf (Abutilon theophrasti) (ABUTH); assay: post-emergent herbicidal test, velvetleaf; type: in vivo; details: Abutilon theophrasti, post-emergence, read-out: ABUTH percent control; for pest or weed control at 1000 g/ha: post-emergent, 1.0 kg/ha (*), 17-21 days after application
Outline: as §1

[3] = system: green foxtail (Setaria viridis) (SETVI); assay: post-emergent herbicidal test, green foxtail; type: in vivo; details: Setaria viridis, post-emergence, read-out: SETVI percent control; for pest or weed control at 1000 g/ha: post-emergent, 1.0 kg/ha (*), 17-21 days after application
Outline: as §1

[4] = system: farnesyl pyrophosphate synthase in daffodil chromoplasts; assay: inhibition of farnesyl pyrophosphate synthase in daffodil chromoplasts (14C-isopentenyl pyrophosphate incorporation); type: biochemical, Narcissus pseudonarcissus; details: unit inferred, IC50 values in nM, read-out: IC50
Outline: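 Daffodil chromoplasts in pH 7.7 sucrose/MgCl2/HEPES buffer with cysteine, NaF and BSA, started with ~3 micromolar 14C-isopentenyl pyrophosphate, 30 min at 30° C. Butanol-extractable radioactivity counted by scintillation; % residual activity calculated against zero-time and end-point no-inhibitor controls.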

[5] = system: wild mustard (Brassica kaber), also known as Sinapis arvensis (SINAR); assay: post-emergent herbicidal test, wild mustard; type: in vivo; details: Brassica, post-emergence, read-out: SINAR percent control; for pest or weed control at 1000 g/ha: post-emergent, 1.0 kg/ha (*), 17-21 days after application
Outline: as §1

[6] = system: morningglory (Ipomoea spp.) (IPOSS); assay: post-emergent herbicidal test, morningglory; type: in vivo; details: Ipomoea, post-emergence, read-out: IPOSS percent control; for pest or weed control at 1000 g/ha: post-emergent, 1.0 kg/ha (*), 17-21 days after application
Outline: as §1

[7] = system: yellow nutsedge (Cyperus esculentus) (CYPES); assay: post-emergent herbicidal test, yellow nutsedge; type: in vivo; details: Cyperus, post-emergence, read-out: CYPES percent control; for pest or weed control at 1000 g/ha: post-emergent, 1.0 kg/ha (*), 17-21 days after application
Outline: as §1

[8] = system: barnyard grass (Enchinochloa crusgalli) (ECHCG); assay: post-emergent herbicidal test, barnyard grass; type: in vivo; details: Echinochloa crus-galli, post-emergence, read-out: ECHCG percent control; for pest or weed control at 1000 g/ha: post-emergent, 1.0 kg/ha (*), 17-21 days after application
Outline: as §1

SMILES | pest or weed control at 4000 g/ha [1] [%] | pest or weed control at 4000 g/ha [2] [%] | pest or weed control at 4000 g/ha [3] [%] | IC50 ([4]; Table I) [nM] | IC50 ([4]; Table II) [nM] | pest or weed control at 4000 g/ha [5] [%] | pest or weed control at 4000 g/ha [6] [%] | pest or weed control at 4000 g/ha [7] [%] | pest or weed control at 4000 g/ha [8] [%] | pest or weed control at 1000 g/ha [1] [%] | pest or weed control at 1000 g/ha [2] [%] | pest or weed control at 1000 g/ha [3] [%] | pest or weed control at 1000 g/ha [5] [%] | pest or weed control at 1000 g/ha [6] [%] | pest or weed control at 1000 g/ha [7] [%] | pest or weed control at 1000 g/ha [8] [%]
CC(C)NCC(P(=O)(O)O)P(=O)(O)O [Compound 6] | 50 | 15 | 60 | 89 | 89 | 100 | 70 | 25 | 60 |  |  |  |  |  |  | 
Cc1cnn(CC(P(=O)(O)O)P(=O)(O)O)c1 [Compound 60] |  |  |  | 1410 | 1410 |  |  |  |  | 10 | 10 | 30 | 20 | 5 | 0 | 30
O=P(O)(O)C(CN1CC=CCC1)P(=O)(O)O [Compound 45] |  |  |  | 26 | 26 |  |  |  |  | 100 | 90 | 100 | 100 | 100 | 50 | 100
CCOCCNCC(P(=O)(O)O)P(=O)(O)O [Compound 22] |  |  |  | 1160 | 1660 |  |  |  |  | 0 | 5 | 20 | 40 | 5 | 0 | 15
O=P(O)(O)C(CNC1CCc2ccccc21)P(=O)(O)O (stereo not drawn) [Compound 49] |  |  |  | 1730 | 1730 |  |  |  |  | 60 | 5 | 15 | 10 | 10 | 10 | 50
CC1CCCN(CC(P(=O)(O)O)P(=O)(O)O)C1C (stereo not drawn) [Compound 57] |  |  |  | 96 | 96 |  |  |  |  | 100 | 80 | 100 | 100 | 90 | 15 | 100
CCCCNCC(P(=O)(O)O)P(=O)(O)O [Compound 14] |  |  |  | 347 | 347 |  |  |  |  | 70 | 20 | 95 | 85 | 10 | 15 | 90
C=CCN(C)CC(P(=O)(O)O)P(=O)(O)O [Compound 41] |  |  |  | 60 | 60 |  |  |  |  | 100 | 85 | 95 | 100 | 85 | 60 | 95
CCCCN(CCCC)CC(P(=O)(O)O)P(=O)(O)O [Compound 24] |  |  |  | 190 | 190 |  |  |  |  | 98 | 0 | 85 | 30 | 5 | 10 | 98
CCCCCN(CCC)CC(P(=O)(O)O)P(=O)(O)O [Compound 62] |  |  |  | 186 | 186 |  |  |  |  | 100 | 15 | 95 | 85 | 30 | 10 | 85
